From patent US20260092868A1, “METHOD FOR SCREENING FOR AUTOPHAGY MODULATOR” (THE ASAN FOUNDATION, priority 2022, published 2026)

Experiments:
SNU475 cells [1] = test: ODT setup linking three-dimensional ODT imaging and two-dimensional fluorescence; type: cell-based, human; settings: SNU475 cells after treatment with thapsigargin, ODT plus 2D fluorescence
Method: Additionally, changes in the endoplasmic reticulum and lysosomes in SNU475 cells treated with thapsigargin were analyzed using an ODT setup that can link three-dimensional ODT imaging and two-dimensional fluorescence. […] It was also confirmed that vesicles were produced in the ER region, followed by fusion with lysosomes.

SNU475 cells [2] = test: Fluorescent tracker (ER-tracker, lysosome-tracker, mito-tracker) imaging by super-resolution microscopy (Airyscan); type: cell-based, human
Method: Changes in the endoplasmic reticulum and lysosomes were measured using a confocal microscope and fluorescent trackers. As the fluorescent trackers, ER-tracker, which enables the specific observation of only the endoplasmic reticulum, and lysosome-tracker, which enables the specific observation of only lysosomes, were used.
Specifically, SNU475 cells were treated with thapsigargin (10 μM) and then stained with ER-tracker or lysosome-tracker, the kinetics of the endoplasmic reticulum and lyosomes were analyzed by super-resolution microscopy (Airyscan), and the results thereof are shown in FIG. 5.
To confirm that high-density vesicles produced upon treatment with thapsigargin are specific to the endoplasmic reticulum, the kinetics of mitochondria were analyzed in the same manner as in 4.1 above by using mito-tracker, which is a mitochondria-specific tracker, and the results thereof are shown in FIG. 6.

SNU475 cells [3] = test: Optical diffraction tomography (ODT) imaging of vesicles and organelles in SNU475 cells; type: cell-based, human
Method: To confirm changes in vesicles upon treatment with an autophagy modulator, SNU475 cells, which are a human hepatoma cell line, were treated with 10 μM thapsigargin, which is an autophagy activator, and then the changes in vesicles in the cells were examined.
More specifically, a SNU475 cell line was prepared in a TomoDish and the SNU475 cells were treated with 10 μM thapsigargin, and then optical diffraction tomography (ODT) images were generated by using HT-2H fluorescence holotomography (Tomocube).
SNU475 cells were treated with 10 μM thapsigargin to induce ER stress, and then changes in the refractive index and radius of vesicles produced in the cells were measured on the basis of images confirmed in Example 1, and the results thereof are shown in FIG. 2. In addition, SNU475 cells were treated with 10 μM thapsigargin, and the number and volume of vesicles in the SNU475 cells treated with thapsigargin were observed over time for 2 hours, and the results thereof are shown in FIG. 3.
To confirm statistical changes in the density and refractive index of vesicles and organelles upon treatment with thapsigargin, the densities and refractive indices of cells before and after SNU475 cells were treated with thapsigargin (10 μM) were compared. In addition, to confirm changes in the densities of organelles upon treatment with thapsigargin, the refractive indices of a nucleolus (No), an endoplasmic reticulum (ER), a cytosol (Cyt), and a plasma membrane (PM) were measured.
To confirm whether the same results as the case of thapsigargin can be obtained upon treatment with autophagy modulators other than thapsigargin, SNU475 cells were treated with each of CPA (20 μM) and TC (60 ug/mL) to induce ER stress, and then changes in vesicles produced in the cells were observed using HT-2H fluorescence holotomography (Tomocube). For observation, optical diffraction tomography (ODT) images 10 hours after treatment with CPA and ODT images 2 hours after treatment with TC were generated, and the results thereof are shown in FIG. 8.

FAM134B = test: Colocalization of ER-phagy receptors with LC3 by immunofluorescence (IF); type: cell-based; settings: 10 μM thapsigargin, IF (FIG. 7)
Method: (§1) To measure the activation levels of an autophagy marker and an ER-phagy marker after treatment with thapsigargin, the colocalization of ER-phagy receptors was measured.
(§2) More specifically, after treatment with thapsigargin (10 μM), the activation of CCPG1, FAM134B, RTN3, and SEC62 was examined by immunofluorescence (IF) analysis, and then the results thereof are shown in FIG. 7.

SEC62 = test: as above; type: cell-based; settings: 10 μM thapsigargin, IF (FIG. 7)
Method: as §1, §2

RTN3 = test: as above; type: cell-based; settings: 10 μM thapsigargin, IF (FIG. 7)
Method: as §1, §2

CCPG1 = test: as above; type: cell-based; settings: 10 μM thapsigargin, IF (FIG. 7)
Method: as §1, §2

[4] = 10 μM thapsigargin, observed for 2 hours (FIG. 3)

## C/C=C(/C)C(=O)O[C@H]1C(C)=C2[C@H]([C@@H]1OC(=O)CCCCCCC)[C@@](C)(OC(C)=O)C[C@H](OC(=O)CCC)[C@@]1(O)[C@H]2OC(=O)[C@@]1(C)O [thapsigargin]
SNU475 cells [1]
  colocalization of high-density vesicles produced in the cytoplasm: specifically colocalized with the endoplasmic reticulum and lysosomes
SNU475 cells [2]; 10 μM thapsigargin, ER-tracker or lysosome-tracker (FIG. 5)
  production of vesicles and lysosomes containing ER components: vesicles and lysosomes that contain ER components were produced
SNU475 cells [2]; 10 μM thapsigargin, lysosome-tracker (FIG. 5B)
  time difference of production of large lysosomes relative to the ER: about 15 minutes
SNU475 cells [2]; thapsigargin, mito-tracker (FIG. 6)
  mitochondrial components in high-density vesicles: did not include mitochondrial components
SNU475 cells [3]; 10 μM thapsigargin (FIG. 2A)
  change in the refractive index of vesicles over time: decreased over time
SNU475 cells [3]; 10 μM thapsigargin (FIG. 2B)
  change in the radius of vesicles over time: increased over time
SNU475 cells [3]; 10 μM thapsigargin (FIG. 4)
  ER-phagy induction: induced
  density of induced vesicles compared with the endoplasmic reticulum: higher density than the endoplasmic reticulum
SNU475 cells [3]; 10 μM thapsigargin, ODT images (FIG. 1)
  generation of high-density vesicles: high-density vesicles were generated
SNU475 cells [3]; [4]
  change in the total number of vesicles over time: decreased over time
  change in volume of vesicles over time: increased over time
SNU475 cells [3]; before and after 10 μM thapsigargin (FIG. 4C)
  density of the endoplasmic reticulum upon treatment: decreased
FAM134B
  activation of FAM134B through colocalization with LC3: activated
SEC62
  activation of SEC62 through colocalization with LC3: activated
RTN3
  activation of RTN3 through colocalization with LC3: activated
CCPG1
  activation of CCPG1 through colocalization with LC3: activated

## tunicamycin [TC]
SNU475 cells [3]; TC 60 ug/mL, ODT images 2 hours after treatment (FIG. 8B)
  change in vesicles: the same changes in the vesicles as those upon treatment with thapsigargin occurred
